Test results: patent US20250368666A1, “INDAZOLE COMPOUNDS” (TYRA BIOSCIENCES, INC., priority 2022, published 2025)

Columns and labels:
[1] = system: HuH7 cell line (FGF19 amplification); assay: Cancer cell line cell viability assay (Cell Titer-Glo), 120 hr; assay type: cell-based; settings: Homo sapiens, Huh-7
Procedure, shortened: (§1)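 Luminescent ATP read-out (Cell Titer-Glo 2.0) after compound exposure, normalised to DMSO-only wells. Dosing: 9 concentrations, 4-fold steps, top 3 μM, triplicates. IC50 derived by log(inhibitor) vs. response 4-parameter fit.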

[2] = system: MDA-MB-453 cell line (FGFR4-Y367C); assay: as above; assay type: cell-based; settings: Homo sapiens
Procedure, shortened: as §1

FGFR3 (V555M) = target: T1, FGFR3 (V555M) (Homo sapiens, UniProt P22607, V555M); assay: Kinase binding assay (kinase-tagged T7 phage, affinity beads, qPCR), Kd; settings: V555M mutant; read-out: FGFR3 (V555M) (Kd nM)
T1 construct: made in house; host or cells: E. coli (BL21-derived), T7 phage
T1 sequence (P22607 23-806 V555M): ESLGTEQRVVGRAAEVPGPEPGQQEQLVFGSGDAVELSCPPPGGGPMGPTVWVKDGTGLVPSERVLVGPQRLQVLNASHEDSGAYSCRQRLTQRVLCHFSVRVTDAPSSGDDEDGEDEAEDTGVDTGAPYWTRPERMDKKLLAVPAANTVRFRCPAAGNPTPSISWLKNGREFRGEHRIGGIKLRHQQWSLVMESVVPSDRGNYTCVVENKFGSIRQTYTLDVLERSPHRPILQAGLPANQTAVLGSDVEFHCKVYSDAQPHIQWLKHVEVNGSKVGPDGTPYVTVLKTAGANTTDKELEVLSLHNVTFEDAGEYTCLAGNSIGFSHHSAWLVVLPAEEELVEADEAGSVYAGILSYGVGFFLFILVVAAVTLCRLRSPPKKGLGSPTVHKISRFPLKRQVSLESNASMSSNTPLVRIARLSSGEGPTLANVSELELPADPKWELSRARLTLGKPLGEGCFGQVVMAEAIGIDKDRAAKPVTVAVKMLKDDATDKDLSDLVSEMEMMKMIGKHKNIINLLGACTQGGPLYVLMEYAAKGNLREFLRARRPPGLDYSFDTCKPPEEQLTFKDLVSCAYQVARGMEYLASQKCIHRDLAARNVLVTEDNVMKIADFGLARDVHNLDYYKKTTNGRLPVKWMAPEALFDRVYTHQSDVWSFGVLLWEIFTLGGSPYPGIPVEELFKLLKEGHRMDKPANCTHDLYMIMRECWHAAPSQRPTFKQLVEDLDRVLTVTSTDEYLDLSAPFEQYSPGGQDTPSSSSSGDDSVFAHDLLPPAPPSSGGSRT
Procedure, shortened: (§2)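 Competition binding; kinase-tagged T7 phage lysate vs immobilised biotinylated ligand on streptavidin beads, 0.9% DMSO final. 11-pt 3-fold dilutions, 3 DMSO controls. qPCR of eluted kinase; Kd by Hill fit, slope −1.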

FGFR2 = target: T2, FGFR2 (Homo sapiens, UniProt P21802); assay: as above; settings: read-out: FGFR2 (Kd nM)
T2 construct: made in house; host or cells: E. coli (BL21-derived), T7 phage
T2 sequence (P21802 22-821): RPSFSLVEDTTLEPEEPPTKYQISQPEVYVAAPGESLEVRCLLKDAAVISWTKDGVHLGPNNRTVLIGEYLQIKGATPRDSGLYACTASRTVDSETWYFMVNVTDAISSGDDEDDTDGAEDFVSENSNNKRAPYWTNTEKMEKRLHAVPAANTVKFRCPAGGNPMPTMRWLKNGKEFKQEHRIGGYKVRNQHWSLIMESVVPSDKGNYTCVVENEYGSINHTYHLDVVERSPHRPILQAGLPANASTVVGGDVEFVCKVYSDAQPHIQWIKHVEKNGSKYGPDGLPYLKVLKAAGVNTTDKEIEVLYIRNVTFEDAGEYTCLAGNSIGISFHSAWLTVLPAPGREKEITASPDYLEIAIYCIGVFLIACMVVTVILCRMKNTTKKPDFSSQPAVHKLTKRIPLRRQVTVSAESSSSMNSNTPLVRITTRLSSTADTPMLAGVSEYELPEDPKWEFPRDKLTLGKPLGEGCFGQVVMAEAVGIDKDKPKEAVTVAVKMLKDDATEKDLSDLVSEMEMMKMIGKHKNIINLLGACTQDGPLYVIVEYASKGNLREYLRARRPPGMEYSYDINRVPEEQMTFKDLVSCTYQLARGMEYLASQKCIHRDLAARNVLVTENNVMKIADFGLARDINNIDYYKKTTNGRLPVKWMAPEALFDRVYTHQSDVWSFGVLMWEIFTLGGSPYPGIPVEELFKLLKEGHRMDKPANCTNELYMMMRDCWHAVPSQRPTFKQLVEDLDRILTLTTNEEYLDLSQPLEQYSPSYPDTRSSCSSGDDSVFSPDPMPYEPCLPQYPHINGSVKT
Procedure, shortened: as §2

FGFR1 = target: T3, FGFR1 (Homo sapiens, UniProt P11362); assay: as above; settings: read-out: FGFR1 (Kd nM)
T3 construct: made in house; host or cells: E. coli (BL21-derived), T7 phage
T3 sequence (P11362 22-822): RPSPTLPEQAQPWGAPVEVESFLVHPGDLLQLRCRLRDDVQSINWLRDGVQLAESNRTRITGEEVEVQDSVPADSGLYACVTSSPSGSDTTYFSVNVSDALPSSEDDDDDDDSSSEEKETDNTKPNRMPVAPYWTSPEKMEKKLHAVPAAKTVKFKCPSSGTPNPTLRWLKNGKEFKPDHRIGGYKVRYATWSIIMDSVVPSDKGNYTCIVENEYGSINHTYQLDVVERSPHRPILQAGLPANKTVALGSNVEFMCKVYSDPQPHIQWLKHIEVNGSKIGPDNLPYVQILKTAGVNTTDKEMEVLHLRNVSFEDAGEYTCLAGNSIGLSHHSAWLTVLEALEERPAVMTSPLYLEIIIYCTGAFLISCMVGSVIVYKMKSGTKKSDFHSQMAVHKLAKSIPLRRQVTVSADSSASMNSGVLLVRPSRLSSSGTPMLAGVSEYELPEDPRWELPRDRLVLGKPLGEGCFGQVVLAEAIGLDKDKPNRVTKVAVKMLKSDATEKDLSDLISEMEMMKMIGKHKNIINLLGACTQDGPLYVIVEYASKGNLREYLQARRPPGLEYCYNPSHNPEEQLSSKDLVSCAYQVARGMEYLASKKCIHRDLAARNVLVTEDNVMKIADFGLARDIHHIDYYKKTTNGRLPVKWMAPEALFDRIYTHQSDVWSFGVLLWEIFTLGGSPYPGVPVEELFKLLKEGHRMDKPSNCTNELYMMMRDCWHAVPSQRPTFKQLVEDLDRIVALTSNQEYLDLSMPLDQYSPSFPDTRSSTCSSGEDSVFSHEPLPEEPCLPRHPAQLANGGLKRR
Procedure, shortened: as §2

FGFR4 = target: T4, FGFR4 (Homo sapiens, UniProt P22455); assay: as above; settings: read-out: FGFR4 (Kd nM)
T4 construct: made in house; host or cells: E. coli (BL21-derived), T7 phage
T4 sequence (P22455 22-802): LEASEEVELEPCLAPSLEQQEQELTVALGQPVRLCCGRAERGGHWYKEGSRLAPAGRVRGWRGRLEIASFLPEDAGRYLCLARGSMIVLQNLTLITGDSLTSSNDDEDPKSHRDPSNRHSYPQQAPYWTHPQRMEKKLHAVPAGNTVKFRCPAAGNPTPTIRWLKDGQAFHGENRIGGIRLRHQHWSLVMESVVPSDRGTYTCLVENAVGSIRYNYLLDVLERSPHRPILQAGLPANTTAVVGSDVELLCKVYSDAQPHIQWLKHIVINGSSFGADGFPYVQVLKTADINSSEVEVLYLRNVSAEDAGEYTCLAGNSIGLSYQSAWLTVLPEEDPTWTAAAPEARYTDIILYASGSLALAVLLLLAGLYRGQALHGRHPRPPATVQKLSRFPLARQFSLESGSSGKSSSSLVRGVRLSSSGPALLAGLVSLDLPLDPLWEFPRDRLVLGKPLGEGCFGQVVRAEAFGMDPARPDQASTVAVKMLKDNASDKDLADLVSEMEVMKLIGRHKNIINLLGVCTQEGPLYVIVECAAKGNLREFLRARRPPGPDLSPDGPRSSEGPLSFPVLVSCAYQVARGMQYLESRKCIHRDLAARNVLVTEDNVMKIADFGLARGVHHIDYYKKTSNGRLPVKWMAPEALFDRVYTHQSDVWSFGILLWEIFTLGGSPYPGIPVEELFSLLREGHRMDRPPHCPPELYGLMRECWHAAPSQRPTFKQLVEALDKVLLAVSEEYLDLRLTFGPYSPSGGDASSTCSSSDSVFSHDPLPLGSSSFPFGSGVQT
Procedure, shortened: as §2

FGFR3 = target: T5, FGFR3 (Homo sapiens, UniProt P22607); assay: as above; settings: read-out: FGFR3 (Kd nM)
T5 construct: made in house; host or cells: E. coli (BL21-derived), T7 phage
T5 sequence (P22607 23-806): as the sequence (P22607 23-806 V555M) above, with M533V counted along it
Procedure, shortened: as §2

[3] = system: KATO-III cell line (FGFR2 amplification); assay: Cancer cell line cell viability assay (Cell Titer-Glo), 72 hr; assay type: cell-based; settings: Homo sapiens, KATO III
Procedure, shortened: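 5,000-20,000 cells/well o/n; cpd 9-pt 4x dil from 3 μM, n=3; 37° C/5% CO2; CTG 2.0 lumi; % DMSO ctrl; 4PL IC50.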

[4] = system: RT112/84 cell line (FGFR3-fusion); assay: as above; assay type: cell-based; settings: Homo sapiens, RT112/84, RT112/84 cell line (FGFR3-fusion)
Procedure, shortened: as §1

[5] = system: KG-1 cell line (FGFR 1-fusion); assay: as above; assay type: cell-based; settings: Homo sapiens, KG-1, KG-1 cell line (FGFR1-fusion)
Procedure, shortened: as §1

Compound | IC50 [1] [nM] | IC50 [2] [nM] | Kd (FGFR3 (V555M)) [nM] | Kd (FGFR2) [nM] | Kd (FGFR1) [nM] | Kd (FGFR4) [nM] | Kd (FGFR3) [nM] | IC50 [3] [nM] | IC50 [4] [nM] | IC50 [5] [nM]
C[C@@H]1[C@@H](CS(C)(=O)=O)CN1c1ncc(-c2n[nH]c3ccc(O[C@H](C)c4c(Cl)cncc4Cl)cc23)cc1F [Example 207, 5-((R)-1-(3,5-dichloropyridin-4-yl)ethoxy)-3-(5-fluoro-6-((2R,3S)-2-methyl-3-((methylsulfonyl)methyl)azetidin-1-yl)pyridin-3-yl)-1H-indazole] |  | 50 to 200 | 1 to 50 | 1 to 50 | 1 to 50 | 1 to 50 | 1 to 50 | 50 to 200 | 0.1 to 50 | 50 to 200
C[C@@H](Oc1ccc2[nH]nc(-c3ccc(N4CC(C)(NCC5CC5)C4)nc3)c2c1)c1c(Cl)cncc1Cl [Example 219, (R)-N-(cyclo-propylmethyl)-1-(5-(5-(1-(3,5-dichloropyridin-4-yl)ethoxy)-1H-indazol-3-yl)pyridin-2-yl)-3-methylazetidin-3-amine] |  | 50 to 200 | 1 to 50 | 1 to 50 | 1 to 50 | 1 to 50 | 1 to 50 | 0.1 to 50 | 0.1 to 50 | 0.1 to 50
CC(C)CNC1(C)CN(c2ccc(-c3n[nH]c4ccc(O[C@H](C)c5c(Cl)cncc5Cl)cc34)cn2)C1 [Example 224, (R)-1-(5-(5-(1-(3,5-dichloropyridin-4-yl)ethoxy)-1H-indazol-3-yl)pyridin-2-yl)-N-isobutyl-3-methylazetidin-3-amine] |  | 50 to 200 | 1 to 50 | 1 to 50 | 1 to 50 | 1 to 50 | 1 to 50 | 0.1 to 50 | 0.1 to 50 | 50 to 200
CCCNC1(C)CN(c2ccc(-c3n[nH]c4ccc(O[C@H](C)c5c(Cl)cncc5Cl)cc34)cn2)C1 [Example 227, 1-[5-[5-[(1R)-1-(3,5-dichloro-4-pyridyl)ethoxy]-1H-indazol-3-yl]-2-pyridyl]-3-methyl-N-propyl-azetidin-3-amine] |  | 50 to 200 | 1 to 50 | 1 to 50 | 1 to 50 | 1 to 50 | 1 to 50 | 0.1 to 50 | 0.1 to 50 | 50 to 200
C[C@@H](Oc1ccc2[nH]nc(-c3ccc(N4CC(C)(N5C[C@@H]6C[C@H]5CO6)C4)nc3)c2c1)c1c(Cl)cncc1Cl [Example 229, (1S,4S)-5-(1-(5-(5-((R)-1-(3,5-dichloropyridin-4-yl)ethoxy)-1H-indazol-3-yl)pyridin-2-yl)-3-methylazetidin-3-yl)-2-oxa-5-aza-bicyclo[2.2.1]hep-tane] |  | 50 to 200 | 1 to 50 | 1 to 50 | 1 to 50 | 1 to 50 | 1 to 50 | 0.1 to 50 | 0.1 to 50 | 50 to 200
C[C@@H](Oc1ccc2[nH]nc(-c3ccc(N4CC(C)(NCC5CC5)C4)nc3F)c2c1)c1c(Cl)cncc1Cl [Example 237, (R)—N-(cyclopropylmethyl)-1-(5-(5-(1-(3,5-dichloropyridin-4-yl)ethoxy)-1H-indazol-3-yl)-6-fluoropyridin-2-yl)-3-methylazetidin-3-amine] |  | 50 to 200 | 1 to 50 | 1 to 50 | 1 to 50 | 1 to 50 | 1 to 50 | 0.1 to 50 | 0.1 to 50 | 0.1 to 50

Second part, the molecule after the results:

IC50 [1] [nM] | IC50 [2] [nM] | Kd (FGFR3 (V555M)) [nM] | Kd (FGFR2) [nM] | Kd (FGFR1) [nM] | Kd (FGFR4) [nM] | Kd (FGFR3) [nM] | IC50 [3] [nM] | IC50 [4] [nM] | IC50 [5] [nM] | Compound
0.1 to 50 | 0.1 to 50 | 1 to 50 | 1 to 50 | 50 to 300 | 1 to 50 | 1 to 50 | 50 to 200 | 50 to 200 | > 1000 | C[C@@H](Oc1ccc2[nH]nc(-c3cnc(N4CC(C)(CP(C)(C)=O)C4)c(C#N)c3)c2c1)c1c(Cl)cncc1Cl [Example 6, (R)-5-(5-(1-(3,5-dichloropyridin-4-yl)ethoxy)-1H-indazol-3-yl)-2-(3-((dimethylphosphoryl)methyl)-3-methylazetidin-1-yl)nicotinonitrile]
0.1 to 50 | 0.1 to 50 | 1 to 50 | 1 to 50 | 1 to 50 | 1 to 50 | 1 to 50 | 50 to 200 | 0.1 to 50 | 50 to 200 | COc1cc2[nH]nc(-c3cnc(N4CC(C)(NC(C)C)C4)c(C#N)c3)c2cc1O[C@H](C)c1c(Cl)cncc1Cl [Example 8, (R)-5-(5-(1-(3,5-Dichloropyridin-4-yl)ethoxy)-6-methoxy-1H-indazol-3-yl)-2-(3-(isopropylamino)-3-methylazetidin-1-yl)nicotinonitrile]
0.1 to 50 | 50 to 200 |  |  | 1 to 50 |  | 1 to 50 | 0.1 to 50 | 0.1 to 50 | 50 to 200 | CC(C)NC1(CC#N)CN(c2ncc(-c3n[nH]c4ccc(O[C@H](C)c5c(Cl)cncc5Cl)cc34)cc2F)C1 [Example 150, (R)-2-(1-(5-(5-(1-(3,5-dichloropyridin-4-yl)ethoxy)-1H-indazol-3-yl)-3-fluoropyridin-2-yl)-3-(isopropylamino)azetidin-3-yl)acetonitrile]
0.1 to 50 | 50 to 200 |  |  | 1 to 50 |  | 1 to 50 | 50 to 200 | 0.1 to 50 | 50 to 200 | C[C@@H](Oc1ccc2[nH]nc(-c3cnc(N4CC(CC#N)(NCC5CC5)C4)c(F)c3)c2c1)c1c(Cl)cncc1Cl [Example 151, 2-[3-(Cyclopropylmethyl-amino)-1-[5-[5-[(1R)-1-(3,5-dichloro-4-pyridyl)ethoxy]-1H-indazol-3-yl]-3-fluoro-2-pyridyl]azetidin-3-yl]acetonitrile]
 | 50 to 200 | 1 to 50 | 1 to 50 | 1 to 50 | 1 to 50 | 1 to 50 | 0.1 to 50 | 0.1 to 50 | 50 to 200 | CC(=O)N1CCN(C2(C)CN(c3ncc(-c4n[nH]c5ccc(O[C@H](C)c6c(Cl)cncc6Cl)cc45)cc3F)C2)CC1 [Example 220, 1-[4-[1-[5-[5-[(1R)-1-(3,5-dichloro-4-pyridyl)ethoxy]-1H-indazol-3-yl]-3-fluoro-2-pyridyl]-3-methyl-azetidin-3-yl]piperazin-1-yl]ethanone]
 | 50 to 200 | 1 to 50 | 1 to 50 | 1 to 50 | 1 to 50 | 1 to 50 | 0.1 to 50 | 0.1 to 50 | 50 to 200 | CC[C@@H](C)NC1(C)CN(c2ccc(-c3n[nH]c4ccc(O[C@H](C)c5c(Cl)cncc5Cl)cc34)cn2)C1 [Example 225, 1-[5-[5-[(1R)-1-(3,5-dichloro-4-pyridyl)ethoxy]-1H-indazol-3-yl]-2-pyridyl]-3-methyl-N-[(1R)-1-meth-ylpropyl]azetidin-3-amine]
 | 50 to 200 | 1 to 50 | 1 to 50 | 1 to 50 | 1 to 50 | 1 to 50 | 0.1 to 50 | 0.1 to 50 | 50 to 200 | CC[C@H](C)NC1(C)CN(c2ccc(-c3n[nH]c4ccc(O[C@H](C)c5c(Cl)cncc5Cl)cc34)cn2)C1 [Example 228, 1-[5-[5-[(1R)-1-(3,5-dichloro-4-pyridyl)ethoxy]-1H-indazol-3-yl]-2-pyridyl]-3-methyl-N-[(1S)-1-meth-ylpropyl]azetidin-3-amine]
0.1 to 50 | 0.1 to 50 |  | 1 to 50 | 1 to 50 | 1 to 50 | 1 to 50 | 0.1 to 50 | 0.1 to 50 | 50 to 200 | COc1cc2[nH]nc(-c3cnc(N4CC[C@](C)(N)C4)c(C#N)c3)c2cc1O[C@H](C)c1c(Cl)cncc1Cl [Example 367, 2-((S)-3-amino-3-methylpyrrolidin-1-yl)-5-(5-((R)-1-(3,5-dichloropyridin-4-yl)ethoxy)-6-methoxy-1H-indazol-3-yl)nicotinonitrile]
0.1 to 50 | 0.1 to 50 |  | 1 to 50 | 1 to 50 | 1 to 50 | 1 to 50 | 0.1 to 50 | 0.1 to 50 | 50 to 200 | COc1cc2[nH]nc(-c3cnc(N4CC[C@@](C)(N)C4)c(C#N)c3)c2cc1O[C@H](C)c1c(Cl)cncc1Cl [Example 369, 2-((R)-3-amino-3-methylpyrrolidin-1-yl)-5-(5-((R)-1-(3,5-dichloropyridin-4-yl)ethoxy)-6-methoxy-1H-indazol-3-yl)nicotinonitrile]
